The values that follow come from US20240400572A1, “COMPOUNDS AND METHODS FOR TREATING CANCERS THAT ARE MGMT DEFICIENT REGARDLESS OF MMR STATUS” (Yale University, priority 2021, published 2024).

Each structure is given as a SMILES string.

One test concerns LN229 MGMT− MMR+ cells. As to the kind of experiment: Anticancer activity towards LN229 human brain glioblastoma cells (nuclei count after 120 hours). The format is cell-based. The following applies: LN-229, LN229 quad cells, 200 μM to 0.1 uM. As for the experimental part: (§1) Exemplary compounds were evaluated for activity against LN229 human brain glioblastoma cells. Experimental procedures and results are provided elsewhere herein.
(§2) LN229 quad cells were maintained in Dulbecco's Modified Eagle Medium (DMEM) supplemented with 10% fetal bovine serum. Cells were plated into sterile black with glass bottom 384-well plates (Cellvis) at a concentration of 1,000 cells/well (20 μL total volume) using a MultiDrop (Thermo Fisher). Then, assay plates were centrifuged at 300 rpm for 2 seconds and incubated overnight in a 37° C. 5% CO2 incubator. Compounds were prepared as 100 mM stocks in DMSO and stored protected from light at −20′C until use. Prior to compound addition, the stock solutions of compound were diluted two-fold serially in DMSO from 100 mM down to 0.05 mM in a 384-well Source plate. Vehicle control wells containing DMSO and positive control wells containing 10 mM bortezomib were also added to the Source plate. An aliquot in the amount of 40 nL of compound stock solution or DMSO vehicle was transferred from the source plate to the cell assay plate using an Echo Acoustic dispense (Beckman). Three replicate dilution curves of each compound were run on each assay plate. An aliquot in the amount of 120 nL of a 10 mM bortezomib solution was transferred to the positive control wells resulting in a final concentration of 60 μM. The final concentration of compounds ranged from 200 μM to 0.1 uM (12-point, 2-fold dilution dose response curve), and the final DMSO concentration was 0.2%.
(§3) Assay plates were centrifuged at 500 rpm for 2 seconds and incubated for 120 hours at 37° C. in a humidified 5% CO2 incubator. Following incubation, cells were fixed with 4% paraformaldehyde and stained with DAPI for nuclei visualization. The images were acquired on the InCell 2200 high content imager (GE, now […]), and quantified using InCell Analyzer image analysis software. Z prime factor, signal-to-background and coefficient of variation were calculated for each assays plate using mean and standard deviation values of the negative (vehicle) and positive (bortezomib) control wells to ensure assay robustness. Raw cell count data for test compounds was normalized to percent viability relative to the DMSO vehicle control. Data was plotted in GraphPad Prism using a variable slope 4-parameter fit.

For the next test, the system named is LN229 MGMT+ MMR+ cells. The test is described as above. It counts as cell-based. The conditions noted are these: LN-229, LN229 quad cells, 200 μM to 0.1 uM. As for the experimental part: as §1, §2, §3
Another test concerns LN229 MGMT+ MMR− cells. The description is as above. The format is cell-based. The conditions noted are these: LN-229, LN229 quad cells, 200 μM to 0.1 uM. On the procedure:
as §1, §2, §3

In the next test the test system is LN229 MGMT− MMR− cells. Described as above. It counts as cell-based. The following applies: LN-229, LN229 quad cells, 200 μM to 0.1 uM. As for the experimental part: as §1, §2, §3
Test [1] deals with linearized pUC19 plasmid DNA. Kind of test: In vitro DNA cross-linking assay. The following applies: 100 μM, 6-36 hours. The format is biochemical. As for the experimental part: Plasmid Linearization Assay. To set up the linearization reactions, 20 units of EcoRI-HF (New England Biolabs) was mixed with 20 μg 2686 bp pUC19 vector DNA in CutSmart buffer (New England Biolabs), pH 7.9, in a total volume of 1000 μL for 30 min at 37° C. The CutSmart buffer contains 50 mM potassium acetate, 20 mM Tris acetate, 10 mM magnesium acetate, and 100 μg/mL BSA. The reacted DNA was then purified using PCR cleanup kit and quantified using the NanoDrop One (Thermo Fisher). The DNA was then stored at −20° C. before use in in vitro DNA cross-linking assays or melting temperature analysis.
In Vitro DNA Cross-linking Assays. Linearized pUC19 DNA, prepared as described above, was used for in vitro DNA cross-linking assays. For each condition, 200 ng of linearized pUC19 DNA (15.4 μM base pairs) was incubated with the indicated concentration of drug in 20 μL. Drug stock concentrations were made in DMSO such that each reaction contained a fixed 5% DMSO concentration. Reactions were conducted in 100 mM Tris buffer (pH 7.4). Cisplatin (Sigma) and DMSO vehicle were used as positive and negative controls, respectively. Reactions were conducted between 3-96 h at 37° C. The DNA was stored at −80° C. until electrophoretic analysis. For gel electrophoresis, DNA concentration was preadjusted to 10 ng/μL. […]

Usually IC50 stands for the concentration needed to halve the response being measured.

In the case of `CNC(=O)c1ncn2c(=O)n(CCF)nnc12` [Compound I-1, 3-(2-fluoroethyl)-N-methyl-4-oxo-3H,4H-imidazo[4,3-d][1,2,3,5]tetrazine-8-carboxamide], the IC50 with LN229 MGMT− MMR+ cells is 10 to 20 µM; in the test with LN229 MGMT+ MMR+ cells it was above 80 µM; with LN229 MGMT+ MMR− cells, above 80 µM; in the test with LN229 MGMT− MMR− cells, below 10 µM.

As to `NC(=O)c1ncn2c(=O)n(CCF)nnc12` [KL-50, 3-(2-fluoroethyl)-4-oxo-3H,4H-imidazo[4,3-d][1,2,3,5]tetrazine-8-carboxamide], the “ICLs in plasmid DNA (in words)” value in test [1] is “possessed ICLs, with delayed rates of formation relative to 12b”.
